Drawing on article doi:10.1101/2024.10.14.618121v2 (biorxiv, 2025), this text covers Ki and IC50 for one compound.

The structures appear in SMILES notation.

Assay [1] deals with T1, DENV3 NS5 MTase (dengue virus type 3, UniProt V9TQY8).
T1 sequence (V9TQY8 2491-2753): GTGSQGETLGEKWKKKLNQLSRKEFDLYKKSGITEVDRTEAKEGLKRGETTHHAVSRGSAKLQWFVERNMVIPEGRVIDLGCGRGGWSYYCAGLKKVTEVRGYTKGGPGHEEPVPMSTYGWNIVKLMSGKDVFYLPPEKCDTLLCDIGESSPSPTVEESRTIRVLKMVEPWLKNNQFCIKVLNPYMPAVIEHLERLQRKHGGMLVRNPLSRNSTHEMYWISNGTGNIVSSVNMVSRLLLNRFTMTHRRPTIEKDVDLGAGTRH
Kind of assay: fluorescence polarization displacement of F-GTP. It counts as binding.

Assay [2] addresses T1, DENV3 NS5 MTase. Kind of assay: fluorescence polarization displacement of F-GTP. It counts as binding. This is another data set of the same source.

Take `O=c1c(O)c(-c2ccc(O)cc2)oc2c(O)c(O)cc(O)c12` [HC, herbacetin]: the Ki on DENV3 NS5 MTase [1] is around 430 nM. The compound also registered an IC50 on DENV3 NS5 MTase [2] of 770 ± 10 nM.
